This is an account of results in patent publication US8277842B1, “Enteric-coated HT-2157 compositions and methods of their use” (Dart NeuroScience (Cayman) Ltd., priority 2012, dated 2012).

One series in a line: in vivo. The settings on record: rat, po; for AUC(0-t): AUC0-24 of HT-2157 in plasma; for Cmax: Cmax of HT-2157 in plasma; for NOEL / NOEL (first NOEL column) / non-toxic dose level: 28 days. How it is done:
(§1) Consequently, separate toxicokinetic studies directed to […] (without an enteric coating) were performed in rat and in dog, which is considered the more sensitive species. […] In these studies, the non-toxic dose level for oral administration of HT-2157 over 28 days was 30 mg/kg/day for female rats, 100 mg/kg/day for male rats and 50 mg/kg/day for dogs (both sexes). Table 1 lists the mean Cmax and AUC values of HT-2157 in the plasma associated with these dosages: […]

Series [1] in a line: 28-day oral toxicity study with non-enteric coated HT-2157, dog. The format is in vivo. To be noted: for Cmax / AUC(0-t): plasma, 50 mg/kg/day, at NOEL; for AUC(0-t): read-out: AUC0-24 of HT-2157 in plasma. The method, then:
as §1

A short description of series [2]: Metabolite HT-2800 in microsomes incubated with HT-2157, human. The format is in vitro ADME. The method, then:
(§2) Such HT-2157 administration studies were carried out in several animal models, including rats, dogs (as well as mice). In this regard, the major human metabolite of HT-2157, HT-2800, was found in human, mouse, and monkey microsomes following incubation with the HT-2157 compound, but it was not detected in rat or dog microsomes or in plasma collected from dogs dosed with HT-2157.

The nature of series [3]: Metabolite HT-2800 in microsomes incubated with HT-2157, mouse. The series is classed as in vitro ADME. How it is done:
as §2

Series [4] can be described thus: Metabolite HT-2800 in microsomes incubated with HT-2157, monkey. The format is in vitro ADME. How it is done:
as §2

The nature of series [5]: Metabolite HT-2800 in microsomes incubated with HT-2157, rat. The series is classed as in vitro ADME. How it is done: as §2
The nature of series [6]: Metabolite HT-2800 in microsomes incubated with HT-2157, dog. The format is in vitro ADME. How it is done:
as §2

Series [7] is described as follows: Metabolite HT-2800 in plasma of dogs dosed with HT-2157. The series is classed as in vivo, dog. The settings on record: plasma collected from dogs dosed with HT-2157. How it is done: as §2
A short description of series [8]: Ninety-day study with HT-2157, methemoglobin formation, mice. The series is classed as in vivo. The source says: (§3) These findings indicate that a process of hemolytic anemia and compensatory hematopoietic response to anemia occurred in the animals. The hemolytic anemia was reversible upon discontinuation of drug treatment. In animals at high doses, there were also increases in methemoglobin of between 30 and 40% in treatment as compared to control animals. These increases resolved 1 to 2 weeks after discontinuation of dosing.

Series [9] can be described thus: Ninety-day study with HT-2157, methemoglobin formation, rats. The series is classed as in vivo.
Source text: as §3

Series [10] is described as follows: Ninety-day study with HT-2157, methemoglobin formation, dogs. The series is classed as in vivo.
Source text: as §3

The nature of series [11]: Repeat-dose animal toxicology studies, PO. The format is in vivo, mice, rats, dogs. To be noted: non-enteric coated.
For series [12] the following is noted: after systemic administration; Oegren et al. 2006; cited from earlier work.
Setting [13] is: female, female dog, day 1 of dosing.
Setting [14] is: female, female dog, day 28 of dosing.
The mark [15] stands for this setting: male, male dog, day 1 of dosing.
[16] abbreviates: male, male dog, day 28 of dosing.

One may read the Cmax as the maximum level reached in the sampled fluid or tissue.

Turning to `O=C1C(=Nc2cccc(C(F)(F)F)c2)c2ccccc2N1c1ccccc1` [HT-2157], the “AUC0-24 of HT-2157 in plasma” value in the series “in vivo” (female, 30 mg/kg/day) came to 235 ng·h/mL; in the series “in vivo” (male, 100 mg/kg/day), 1445 ng·h/mL. Also, the AUC(0-t) in “in vivo” (female, 30 mg/kg/day) was determined as 283 ng·h/mL; in “in vivo” (male, 100 mg/kg/day) it was 1380 ng·h/mL; in series [1] (setting [13]), 571 ng·h/mL; in series [1] (setting [14]), 799 ng·h/mL; in series [1] (setting [15]) it was 676 ng·h/mL; in series [1] (setting [16]), 550 ng·h/mL. Moreover, the Cmax stood at 109 ng/mL in the series “in vivo” (female, 30 mg/kg/day); 252 ng/mL in the series “in vivo” (male, 100 mg/kg/day); 162 ng/mL in series [1] (setting [13]); 104 ng/mL in [1] (setting [14]); 99 ng/mL in series [1] (setting [15]); 87.1 ng/mL in series [1] (setting [16]). In addition, the “NOEL” value is listed as 177 in “in vivo” (female); 590 in “in vivo” (male); 1000 in series [1] (female, in vivo, 28 days); 1000 in series [1] (male, in vivo, 28 days). In addition, the “NOEL (first NOEL column)” value in “in vivo” (female) is reported as 30; in the series “in vivo” (male) it was 100; in series [1] (female, in vivo, 28 days), 50; in series [1] (male, in vivo, 28 days), 50. The non-toxic dose level in the series “in vivo” (female) came to 30 mg/kg/day; in “in vivo” (male), 100 mg/kg/day; in series [1] (both, in vivo, 28 days) it was 50 mg/kg/day. Further, the “metabolite HT-2800 following incubation with HT-2157” value is given as “found” in series [2]; “found” in [3]; “found” in series [4]; “not detected” in [5]; “not detected” in series [6]. For the same molecule, the “metabolite HT-2800 in plasma” value in series [7] was “not detected”. The “dose with statistically significant methemoglobin formation” value in series [8] is 750 mg/kg/day; in series [9], 150 mg/kg/day; in series [10], at least 30 mg/kg/day. The “drug-related findings in repeat-dose toxicology” value in [11] (mice up to 3 months, rats up to 1 year, dogs up to 9 months) was “dose-dependent shifts in hemoglobin fractions (methemoglobin, carboxyhemoglobin, oxyhemoglobin) and mild to moderate reversible hemolytic anemia with associated compensatory responses”. Also, in [12], the blood-brain barrier passage entry is given as “can cross the blood-brain barrier”.
Consider `O=C1C(=Nc2cccc(C(F)(F)F)c2)c2ccccc2N1c1ccc(O)cc1` [HT-2800], for which the “drug-related findings in repeat-dose toxicology” value in series [11] (rats up to 6 months, dogs 9 months) was “dose-dependent shifts in hemoglobin fractions (methemoglobin, carboxyhemoglobin, oxyhemoglobin) and mild to moderate reversible hemolytic anemia with associated compensatory responses”.
